Assay results from patent US9801960B2, “Probe for a biological specimen and labelling method and screening method using the probe” (CANON KABUSHIKI KAISHA, priority 2008, dated 2017).

Tests used:
Zebrafish juveniles = test: In vivo labelling of Zebrafish juveniles with probe for biological specimen; design: key to Staining property: +++: stained; −: no stained; key to Fluorescence sensitivity: +++: strongly observed; ++: moderately observed; +: weakly observed; −: no stained; conditions: 1 hour; for Site(s) to be labelled: 10 ng/mL in water, stereoscopic microscope; for Fluorescence sensitivity / Staining property: 10 ng/mL; for Fluorescence sensitivity: fluorescence intensity visually evaluated; for Staining property: visually evaluated
Description: Five juveniles of Zebrafish were put into one well of a well plate together with rearing water. After rearing water had been discharged, 1 mL of distilled water was added to the well, and a solution of a staining compound (1) in DMSO was further added thereto so as to achieve a concentration of 10 ng/mL, followed by gentle stirring (pipetting). Further, Egg Water was prepared by dissolving artificial seawater SEALIFE (manufactured by Marinetech Co., Ltd.) in distilled water at a concentration of 60 mg/L. After the whole had been left to stand for 1 hour, distilled water in the well was discharged and replaced by 1 mL of fresh Egg Water. In addition, such an operation that Egg Water was discharged and replaced by 1 mL of fresh Egg Water was repeated twice. One of the juveniles was taken out from the well onto a dish, supplemented with 100 μL of a 3% methylcellulose aqueous solution to fix the movement of the juvenile, and photographed with a stereoscopic microscope (MZ10F: manufactured by Leica Microsystems K.K.).
The same operation as that in Example 1 was performed except that the staining compound (1) used in Example 1 was changed to any one of the staining compounds described in Table 1.
The same operation as that in Example 1 was performed except that the staining compound (1) used in Example 1 was changed to any one of indocyanine green (ICG) and fluorescein.
The staining property of each of the staining compounds of Labelled Examples 1 to 78 and Labelled Comparative Examples 1 and 2 was visually evaluated (+++: stained and −: no stained).
The fluorescence intensity of each of the staining compounds of Labelled Examples 1 to 78 and Labelled Comparative Examples 1 and 2 was visually evaluated (+++: strongly observed, ++: moderately observed, +: weakly observed, and −: no stained).

[1] = Storage stability of staining compound solution in DMSO; type: physicochemical; conditions: 10 ng/mL in DMSO, closed glass container, normal temperature, 1 month; rate of change of absorbance and fluorescence intensity
Description: A 10 ng/mL solution of each of the staining compounds of Labelled Examples 1 to 78 and Labelled Comparative Examples 1 and 2 in DMSO was prepared, charged into a well-closed container made of glass, and left to stand still at normal temperature for 1 month. The absorbance and the fluorescence intensity at the time of the start of a storage stability test were measured at a given wavelength, and their rates of change were examined (+++: rates of change of the absorbance and the fluorescence intensity are less than 5%, and thus, the storage stability is highly excellent; ++: rates of change of the absorbance and fluorescence intensity are 5 to 15%, and thus, the storage stability is excellent; and −: rates of change of the absorbance and fluorescence intensity are more than 15%, and thus, the storage stability is poor).

[2] = Excitation and fluorescence emission wavelength measurement; type: physicochemical; design: Stokes shift (λem − λex): unit not given here; conditions: aqueous solution: 10 mg/mL solution in DMSO diluted 500-fold with purified water
Description: It should be noted that the excitation wavelength and the fluorescence emission wavelength of the staining compound were determined by measuring an aqueous solution, which had been obtained by diluting 500-fold a 10 mg/mL solution of the staining compound in DMSO with purified water, with a fluorescence spectrophotometer FL 4500 manufactured by Hitachi High-Technologies Corporation.

Row | SMILES | Site(s) to be labelled (Zebrafish juveniles) | Fluorescence sensitivity (Zebrafish juveniles) | Staining property (Zebrafish juveniles) | Storage stability [1] | Excitation wavelength λex [2] [nm] | Fluorescence emission wavelength λem [2] [nm] | Stokes shift (λem − λex) [2]
1 | O=C(O)CN1C(=O)/C(=C\c2ccc3c(c2)C2CCCC2N3c2ccccc2)SC1=S (stereo not drawn) [Dye 1] | blood vessel, gallbladder, and gastrointestinal | +++ | +++ | +++ (rates of change of the absorbance and the fluorescence intensity are less than 5%, and thus, the storage stability is highly excellent) | 531 | 633 | 102
2 | O=C(O)CN1C(=O)/C(=C\c2cc(Br)c3c(c2)C2CCCC2N3c2ccc(Br)cc2)SC1=S (stereo not drawn) [Dye 2] | blood vessel, liver, and gastrointestinal tract | +++ | +++ | +++ (rates of change of the absorbance and the fluorescence intensity are less than 5%, and thus, the storage stability is highly excellent) | 482 | 609 | 127
3 | O=C(O)CN1C(=O)/C(=C\c2ccc3c(c2)C2CCCC2N3Cc2ccccc2)SC1=S (stereo not drawn) [Dye 3] | blood vessel, gallbladder, and gastrointestinal | +++ | +++ | +++ (rates of change of the absorbance and the fluorescence intensity are less than 5%, and thus, the storage stability is highly excellent) | 525 | 607 | 82
4 | N#C/C(=C\c1ccc2c(c1)C1CCCC1N2Cc1ccccc1)C(=O)O (stereo not drawn) [Dye 5] | liver, gallbladder, and gastrointestinal tract | ++ | +++ | +++ (rates of change of the absorbance and the fluorescence intensity are less than 5%, and thus, the storage stability is highly excellent) | 482 | 580 | 98
5 | N#C/C(=C\c1ccc2c(c1)C1CCCC1N2c1ccc(C=C(c2ccccc2)c2ccccc2)cc1)C(=O)O (stereo not drawn) [Dye 7] | blood vessel and liver | +++ | +++ | +++ (rates of change of the absorbance and the fluorescence intensity are less than 5%, and thus, the storage stability is highly excellent) | 498 | 601 | 103
6 | O=C(O)Cn1c(=O)/c(=C\c2ccc3c(c2)C2CCCC2N3Cc2ccccc2)s/c1=C1/SC(=S)N(Cc2ccccc2)C1=O (stereo not drawn) [Dye 11] | blood vessel, liver, and gastrointestinal tract | ++ | +++ | +++ (rates of change of the absorbance and the fluorescence intensity are less than 5%, and thus, the storage stability is highly excellent) | 588 | 668 | 80
7 | N#C/C(=C\c1ccc2c(c1)C1CCCC1N2c1ccccc1)C(=O)O (stereo not drawn) [Dye 13] | liver and gastrointestinal tract | ++ | +++ | +++ (rates of change of the absorbance and the fluorescence intensity are less than 5%, and thus, the storage stability is highly excellent) | 477 | 567 | 90
8 | COc1ccc2cc(N3c4ccc(/C=C5\C(=O)N(c6ccccc6)N=C5C(=O)O)cc4C4CCCC43)ccc2c1 (stereo not drawn) [Dye 14] | gallbladder | ++ | +++ | +++ (rates of change of the absorbance and the fluorescence intensity are less than 5%, and thus, the storage stability is highly excellent) | 610 | 675 | 65
9 | CSc1ccc(N2c3ccc(/C=C4/SC(=S)N(CC(=O)O)C4=O)cc3C3CCCC32)cc1 (stereo not drawn) [Dye 17] | blood vessel, liver, and gastrointestinal tract | +++ | +++ | +++ (rates of change of the absorbance and the fluorescence intensity are less than 5%, and thus, the storage stability is highly excellent) | 527 | 636 | 109
10 | COc1ccc2cc(N3c4ccc(/C=C5/SC(=S)N(CCC(=O)O)C5=O)cc4C4CCCC43)ccc2c1 (stereo not drawn) [Dye 20] | blood vessel, liver, and gastrointestinal tract | +++ | +++ | +++ (rates of change of the absorbance and the fluorescence intensity are less than 5%, and thus, the storage stability is highly excellent) | 533 | 661 | 128
11 | CC1=NN(c2ccccc2)C(=O)/C1=C\c1cc(Br)c2c(c1)C1CCCC1N2c1ccc(Br)cc1 (stereo not drawn) [Dye 22] | liver and gastrointestinal tract | +++ | +++ | ++ (rates of change of the absorbance and fluorescence intensity are 5 to 15%, and thus, the storage stability is excellent) | 570 | 598 | 28
12 | O=C(O)C[n+]1c(/C=C/c2ccc3c(c2)C2CCCC2N3Cc2ccccc2)sc2ccccc21 (stereo not drawn) [Dye 24] | nose | +++ | +++ | +++ (rates of change of the absorbance and the fluorescence intensity are less than 5%, and thus, the storage stability is highly excellent) | 566 | 611 | 45
13 | N#C/C(=C\c1cc(Br)c2c(c1)C1CCCC1N2Cc1cccc(Br)c1)C(=O)O (stereo not drawn) [Dye 25] | gastrointestinal tract | ++ | +++ | +++ (rates of change of the absorbance and the fluorescence intensity are less than 5%, and thus, the storage stability is highly excellent) | 394 | 554 | 160
14 | O=C(O)CCN1C(=O)/C(=C\c2cc(Br)c3c(c2)C2CCCC2N3c2ccc(Br)cc2)SC1=S (stereo not drawn) [Dye 29] | blood vessel, gallbladder, and liver | +++ | +++ | +++ (rates of change of the absorbance and the fluorescence intensity are less than 5%, and thus, the storage stability is highly excellent) | 518 | 575 | 57
15 | CCN1C(=O)/C(=c2\s/c(=C/c3ccc4c(c3)C3CCCC3N4c3ccccc3)c(=O)n2CC(=O)O)SC1=S (stereo not drawn) [Dye 30] | – | +++ | +++ | +++ (rates of change of the absorbance and the fluorescence intensity are less than 5%, and thus, the storage stability is highly excellent) | 502 | 644 | 142
16 | COc1ccc(N2c3ccc(/C=C/c4sc5ccccc5[n+]4CC(=O)O)cc3C3CCCC32)cc1 (stereo not drawn) [Dye 31] | nose | +++ | +++ | +++ (rates of change of the absorbance and the fluorescence intensity are less than 5%, and thus, the storage stability is highly excellent) | 560 | 677 | 117
17 | O=C1OC2(c3ccc(O)cc3Oc3cc(O)ccc32)c2ccccc21 [fluorescein, reference compound] | – | ++ | +++ | ++ (rates of change of the absorbance and fluorescence intensity are 5 to 15%, and thus, the storage stability is excellent) | – | – | –
